US11938198B2, “Treatment of heart disease by disruption of the anchoring of PP2A” (University of Miami, priority 2019, dated 2024)

Columns and labels:
[1] = test system: mAKAP-associated phosphatase (PP2A); experiment: Phosphatase activity of mAKAP complexes immunoprecipitated from adult rat heart extracts ([32P]histone); type: biochemical; settings: 50 μM CPT-cAMP, 5 min pre-incubation
Protocol: (§1) For immunoprecipitation of endogenous, native mAKAP complexes, adult rat hearts (Pel-Freeze) were homogenized in 10 ml HSE buffer. After centrifugation at 15,000×g for 25 minutes, clarified extracts were immunoprecipitated as above.
(§2) Phosphatase Assay—Phosphatase activity was measured according to the method of Ahn et al. using ^32P-labeled histone as substrate (Ahn et al. 2007). Histone was radiolabeled in reactions containing 250 mM MOPS, pH 7.4, 2.5 mM MgAc, 100 mM β-mercaptoethanol, purified PKA catalytic subunit, 1 μM ATP, 20 μM histone, and 1 mCi [γ-^32P]ATP (6000 Ci/mmol). The reaction was terminated by the addition of 50% TCA, and [^32P]histone was purified from free radionucleotide by centrifugation. The [^32P]histone pellet was washed with 1 ml of ether/ethanol/HCL (4:1:0.1) once and 1 ml of ether/ethanol (4:1) three times. The substrate was then suspended in 200 μl PP2A assay buffer (25 mM Tris, pH 7.4, 1 mM DTT, and 10 mM MgCl2) before precipitation with 50% TCA. After repeated washing, the [^32P]histone was suspended in 200 μl PP2A buffer.
(§3) To measure phosphatase activity, immunoprecipitated protein complexes were washed twice in HSE buffer and once in PP2A reaction buffer. […] TCA supernatants containing released ^32PO4 were measured by scintillation counting.

[2] = test system: mAKAP-associated phosphodiesterase; experiment: PDE activity of native mAKAP complexes immunoprecipitated from adult rat heart extracts; type: biochemical
Protocol: as §1
PDE assay—PDE activity associated with immunoprecipitated protein complexes was assayed according to the method by Beavo et al. (Beavo, Bechtel, and Krebs 1974). Samples were assayed in 45 μl PDE buffer A (100 mM MOPS, pH 7.5, 4 mM EGTA, 1.0 mg/ml bovine serum albumin) and 50 μl PDE buffer B [100 mM MOPS, pH 7.5, 75 mM MgAc, 1 μM cAMP and 100,000 cpm [^3H]cAMP (Dupont, NEN)]. Inhibitors were included as indicated.

PDE4D3 Ser-54 = PDE4D3 Ser-54 phosphorylation in mAKAP immunoprecipitates from transfected HEK293 cells (phospho-specific immunoblot); type: cell-based; settings: HEK293 cells over-expressing mAKAP and PDE4D3; OA or 500 μM CsA for 30 min
SRF Ser^103 = experiment: SRF Ser103 phosphorylation in neonatal rat ventricular myocytes (NRVM); type: cell-based; settings: 1 hour, 1 μM OA or 1 μg/ml CsA
Protocol: Neonatal Rat Ventricular Myocyte Culture: 1-3 day old Sprague-Dawley rats were decapitated, and the excised hearts placed in 1× ADS Buffer (116 mM NaCl, 20 mM HEPES, 1 mM NaH2PO4, 5.5 mM glucose, 5.4 mM KCl, 0.8 mM MgSO4, pH 7.35). The atria were carefully removed and the blood washed away. The ventricles were minced and incubated with 15 mL 1× ADS Buffer containing 3.3 mg type II collagenase (Worthington, 230 U/mg) and 9 mg Pancreatin (Sigma) at 37° C. with gentle shaking. After 15 minutes, the dissociated cardiac myocytes were separated by centrifugation at 50 g for 1 minute, resuspended in 4 mL horse serum and incubated at 37° C. with occasional agitation. The steps for enzymatic digestion and isolation of myocytes were repeated 10-12 times to maximize yield. The myocytes were pooled and spun down again at 50 g for 2 minutes and resuspended in Maintenance Medium (DMEM:M199, 4:1) supplemented with 10% horse serum and 5% fetal bovine serum. To remove any contaminating fibroblasts, the cells were pre-plated for 1 hour before plating on gelatin-coated tissue culture plastic ware. This procedure yields >90% pure cardiac myocytes. After 1 day culture, the media was changed to maintenance medium containing 0.1 mM bromodeoxyuridine to suppress fibroblast growth. […]

mAKAP-bound PDE4D3 = experiment: PDE activity associated with mAKAP immunoprecipitates from transfected HEK293 cells ([3H]cAMP); type: cell-based; settings: 300 μM OA 30 min then 5 μM Fsk 10 min
Protocol: Immunoprecipitation—HEK293 cells were used in this project as a heterologous system lacking mAKAP in which the various wildtype and mutant proteins could be easily expressed. Cells cultured on 60 mm plates were transfected at 50%-70% confluency by the calcium phosphate method, using 6 μg of each DNA construct per plate. Cells were harvested 24 hours after transfection in 0.5 ml HSE buffer (HEPES, pH 7.4, 150 mM NaCl, 5 mM EDTA, 1% Triton X-100 and protease inhibitors). Supernatants were incubated with 3 μg antibody and 15 μl prewashed protein A- or G-agarose beads. Following overnight incubation at 4° C., the immunoprecipitates were washed three times with the same buffer. Bound proteins were analyzed by immunoblotting. […]
As phosphorylation of PDE4D3 Ser-54 increases phosphodiesterase activity 2 fold (Sette and Conti 1996), whether OA treatment would also increase the activity of mAKAP-bound PDE4D3 was tested. mAKAP complexes were immunoprecipitated from transfected HEK293 cells and assayed for associated phosphodiesterase activity (FIG. 8B). mAKAP-associated phosphodiesterase activity in untreated cells was detected only when mAKAP was co-expressed with PDE4D3 (FIG. 8B, bar 1, and data not shown), consistent with a previous observation that PDE4D3 accounts for all of the phosphodiesterase activity associated with mAKAP in cardiac myocytes (Dodge et al. 2001).

[3] = target: T1, mAKAP-associated phosphatase (PP2A) (Rattus norvegicus, UniProt P63331); experiment: Phosphatase activity of mAKAP complexes immunoprecipitated from adult rat heart extracts ([32P]histone); type: biochemical; settings: 10 nM
T1 construct: For immunoprecipitation of endogenous, native mAKAP complexes; tissue Pel-Freeze; host or cells: adult rat heart
T1 sequence (P63331 whole entry): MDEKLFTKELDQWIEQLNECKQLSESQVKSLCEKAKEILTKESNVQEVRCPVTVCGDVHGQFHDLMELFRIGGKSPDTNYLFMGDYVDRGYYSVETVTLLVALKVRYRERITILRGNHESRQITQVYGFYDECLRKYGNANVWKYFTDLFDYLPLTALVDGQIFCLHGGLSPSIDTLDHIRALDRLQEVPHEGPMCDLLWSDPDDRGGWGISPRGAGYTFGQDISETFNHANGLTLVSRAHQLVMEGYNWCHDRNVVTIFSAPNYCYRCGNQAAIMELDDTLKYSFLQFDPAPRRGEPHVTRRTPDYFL
Protocol: as §1, §2, §3

`Nc1ncnc2c1nc(Sc1ccc(Cl)cc1)n2[C@@H]1O[C@@H]2COP(=O)([O-])O[C@H]2[C@H]1O.[Na+]` [CPT-cAMP, 8-(4-chlorophenylthio)adenosine 3′,5′-cyclic monophosphate] was tested. Which “increase of mAKAP-associated phosphatase activity” value [1] did it give?
The value was 2.5 fold.

`C=C1[C@@H](O)[C@@H]2O[C@]3(CC[C@H](/C=C/[C@@H](C)[C@@H]4CC(C)=C[C@@]5(O[C@H](C[C@@](C)(O)C(=O)O)CC[C@H]5O)O4)O3)CC[C@H]2O[C@@H]1[C@@H](O)C[C@H](C)[C@H]1O[C@@]2(CCCCO2)CC[C@H]1C` [OA, okadaic acid] was tested. Which “increase in mAKAP-associated phosphodiesterase activity when PKA was also inhibited” value ([2]; 10 nM OA with 50 nM PKI) did it give?
Its value is 60%.

And the “increase in mAKAP-associated phosphodiesterase activity” value ([2]; 10 nM OA, native complexes from adult rat heart)?
Its value is 30%.

What about the “baseline phosphorylation of PDE4D3 Ser-54” value (PDE4D3 Ser-54) of the same compound?
Its value is “increase in the baseline phosphorylation of PDE4D3 Ser-54”.

And the “baseline phosphorylation of SRF Ser^103” value (SRF Ser^103)?
The value was “promoted baseline phosphorylation of SRF Ser^103”.

And the “mAKAP-bound PDE4D3 activity, Fsk and OA treatment together” value (mAKAP-bound PDE4D3)?
Its value is “synergistically increased PDE4D3 activity”.

What about the “inhibition of mAKAP-associated phosphatase activity” value [3] of the same compound?
The value was “all immunoprecipitated phosphatase activity was inhibited”.
